The source of these data is US20230406840A1, “N-(2-(3-CYANO-2-AZABICYCLO[3.1.0]HEXAN-2-YL)-2-OXOETHYL)QUINOLINE-4-CARBOXAMIDES” (AstraZeneca AB, priority 2022, published 2023).

In brackets after ≈: the same amount, converted by molar mass. Some results are limits rather than exact numbers.

A word on the IC50: it is the concentration that inhibits the measured activity by half. One may read the microsomal CLint as the rate of metabolic loss divided by the concentration. By solubility is commonly meant how much of the substance goes into solution per volume. A high value points to a readily soluble substance. For orientation: Papp A→B means the apparent permeability from the apical to the basolateral side of a cell layer. As usually defined, the Papp B→A is how fast a substance crosses the layer from the basolateral side. As usually defined, the Papp is the rate of passage across a membrane or cell layer, normalised by area and donor concentration.

Series [1] concerns the target Prolyl Oligopeptidase (hPREP) (Homo sapiens (Human), UniProt P48147). The series can be described thus: hPREP inhibition assay. Conditions: hPREP 0.6 nM, Z-Gly-Pro-amino-methylcoumarin 50 μM; read-out: PREP IC50. It is filed as biochemical. The essentials: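 Recombinant human PREP at 0.6 nM final, with Z-Gly-Pro-AMC substrate at 50 μM final. Buffer: 25 mM Tris HCl pH 7.5, 250 mM NaCl, 0.01% Triton X-100, 5 mM glutathione. Incubated 20 min at rt in the dark; fluorogenic AMC release read.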

Series [2] has as its target FAP Mouse Plasma (Mus musculus (Mouse), UniProt P97321). Nature of the series: FAP plasma inhibition assay, mouse plasma. It is filed as biochemical. Conditions: mouse plasma dilution 1:67, Ala-Pro-AMC 75 μM; n = 1. The procedure:
(§1) This assay was adapted from the method described in Example 53 for detection of FAP target engagement enzyme activity in plasma. Plasma (anticoagulant K2EDTA) was used as the enzyme source: Human plasma (Pooled from AZ Biobank) and Mouse plasma (AZ AST Biobank). 384-Well black fluotrack PS plates (Greiner 781076) were used. 20 μL diluted plasma (Human plasma dilution 1:40, Mouse plasma dilution 1:67) in buffer (PBS, 0.1% BSA) was added to 0.6 μL compounds (in DMSO). Compounds were tested using 10 CR, 3-fold dilution series from 500 nM FAC. Two replicates for each assay point were run on the same plate. A fluorescence blank read was taken before substrate addition. Substrate, Ala-Pro-AMC (ARI-3144) stock solution (20 mM in DMSO) was diluted in buffer (PBS, 0.1% BSA) to 150 μM concentration and 20 μL added giving 75 μM FAC. Plates were incubated for 40 min at rt in the dark. The plates were read on a Beckman Paradigm® reader with excitation 360 nm and emission 465 nm. Data were analyzed in Excel (IDBS XLfit Add-In) using a one site dose response model (4-parameter logistic fit). […] Raw data signals were normalized using 1.5% DMSO in diluted plasma as 0% control and 1.5% DMSO in buffer (no plasma) as 100% inhibitor control.

Series [3] addresses human Fibroblast activation protein alpha (hFAP) (Homo sapiens (Human), UniProt Q12884). The series can be described thus: hFAP inhibition assay (tight binders). It is filed as biochemical. Conditions: tight-binder format, Ala-Pro-AMC 20 μM, 2.5 h incubation; n = 1 or geometric mean (n = 5-10). Here is the method:
Data were analyzed in Genedata Screener®.

The target in series [4] is FAP Human Plasma (Homo sapiens (Human), UniProt Q12884). Nature of the series: FAP plasma inhibition assay, human plasma. It is filed as biochemical. Conditions: human plasma dilution 1:40, Ala-Pro-AMC 75 μM; n = 1. The procedure:
as §1

For series [5], the target named is hFAP (Homo sapiens (Human), UniProt Q12884).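 Further: fluorescence read after incubating enzyme with substrate at room temperature, IC50 fitted from percent inhibition against log concentration with a one-site model.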
Chain of hFAP (Q12884 38-760): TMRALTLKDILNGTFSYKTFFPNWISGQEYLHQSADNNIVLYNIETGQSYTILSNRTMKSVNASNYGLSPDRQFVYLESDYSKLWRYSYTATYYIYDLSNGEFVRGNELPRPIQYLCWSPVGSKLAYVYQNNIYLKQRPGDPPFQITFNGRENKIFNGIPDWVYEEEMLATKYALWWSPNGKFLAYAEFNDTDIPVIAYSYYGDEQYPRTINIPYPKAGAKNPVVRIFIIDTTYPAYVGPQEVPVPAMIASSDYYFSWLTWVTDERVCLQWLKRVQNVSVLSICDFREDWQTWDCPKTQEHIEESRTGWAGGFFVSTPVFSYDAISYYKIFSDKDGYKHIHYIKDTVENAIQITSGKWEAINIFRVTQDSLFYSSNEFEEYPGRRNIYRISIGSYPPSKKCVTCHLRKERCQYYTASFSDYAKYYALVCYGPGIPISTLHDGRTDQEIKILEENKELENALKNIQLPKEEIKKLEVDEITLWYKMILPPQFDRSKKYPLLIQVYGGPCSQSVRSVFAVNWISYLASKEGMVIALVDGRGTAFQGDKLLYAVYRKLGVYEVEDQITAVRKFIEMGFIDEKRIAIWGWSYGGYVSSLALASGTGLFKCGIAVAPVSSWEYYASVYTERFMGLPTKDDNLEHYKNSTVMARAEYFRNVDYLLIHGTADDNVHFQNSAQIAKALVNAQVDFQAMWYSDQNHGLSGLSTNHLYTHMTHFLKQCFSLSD
Series [6] has as its target FAP enzyme activity in mouse plasma (Mus musculus (Mouse), UniProt P97321). The series can be described thus: FAP target engagement enzyme activity in mouse plasma after oral dosing. Conditions: male C57Bl/6 mice, single oral dose 3 or 10 mg/kg; estimated from plasma exposure vs FAP activity, Imax fixed to 1; read-out: In vivo Mouse IC50. Here is the method: The effect of test compound on FAP enzyme activity in mouse plasma was evaluated in an enzymatic assay using the Fibroblast Activation Protein alpha (FAP) specific fluorogenic substrate dipeptide-Coumarin, Ala-Pro-AMC, (ARI-3144). In this assay, FAP cleaves Ala-Pro-AMC to release free AMC which is measured as a fluorescent signal that correlates with enzyme activity.
Male C57Bl/6 mice (Charles River, Germany), 8 weeks of age, were single housed in a temperature-controlled room with a 12-hour light/dark cycle (06:00-18:00 light). The mice had ad libitum access to water and rodent chow diet (R70, Lactamin, Kimstad, Sweden), and were acclimated for 5 days upon arrival. After acclimation, all mice received a single oral dose of test compound (3 or 10 mg/kg). Blood samples for whole blood compound exposure measurements were taken at 0.25, 0.5, 1, 2, 4, 8 and 24 h post oral dosing. Samples were collected in EDTA capillary tubes (20 μL, K2E, REF 19.447) and were transferred to a 96-deep well plate (NUNC, Thermo Discher Scientific) and stored at −20° C. until further analyses were performed. […]
Recombinant human FAP (PB-17-1837, construct PL-17-0278, cd33-FAP (27-757)-6His, Mw85926 Da) was used as a standard for this assay. […] The plates were read on a Beckman Paradigm reader with excitation 360 nm and emission 465 nm. Fluorescence measurements were performed with kinetic read every 5 minutes for 60 min at room temperature. Data were analyzed in Excel (IDBS XLfit Add-In) using a Linear Regression (y=k*x+m) model to prepare a human recombinant FAP standard curve.
On the day of the assay, plasma was diluted (1:2) to 20 μL volume in buffer (PBS, 0.1% BSA) and 7.5 μL was transferred to the assay plate (384-well black, fluotrack PS, Greiner 781076). […] The plates were read on a Beckman Paradigm reader with excitation 360 nm and emission 465 nm. Fluorescence measurements were performed with kinetic read every 5 minutes for 60 minutes at room temperature. As noted above, FAP cleaves Ala-Pro-AMC to release free AMC which is measured as a fluorescent signal. […]

Series [7] is described as follows: Metabolic stability in human liver microsomes (HLM). In kind it is in vitro ADME. The procedure: Metabolic stability in HLM was measured as described in J Comput Aided Mol Des 2015, 29, 795.
(Microsomes from liver hold many membrane-bound enzymes, among them those of drug oxidation.)

Series [8] addresses human dipeptidylpeptidase 9 (hDPP9) (Homo sapiens (Human), UniProt Q86TI2). Nature of the series: hDPP9 inhibition assay. Conditions: highest compound concentration 10 μM; n = 1. In kind it is biochemical. Here is the method: Compounds were tested in a biochemical inhibition assay using human dipeptidylpeptidase 9 (hDPP9) enzyme (R&D, #5419-SE-010) and the substrate Gly-Pro-amino-methylcoumarin (Enzo #BML-P189-0005) at 10 μM FAC. The enzymatic reactions were conducted in duplicate at rt for 30 min in 50 μL assay buffer (50 mM Tris, pH 7.5, 0.1% BSA). Compound solutions (in DMSO) at 10 CR, 3-fold dilution series were prepared in assay buffer ten-fold higher than the final concentration, and 5 μL of the dilution was added to a 50 μL reaction so that the highest compound concentration was 10 μM FAC and the concentration of DMSO was 1% in all wells. The plates were read on a PHERAstarPLUS (BMG) using kinetic mode with excitation 340 nm and emission 460 nm. Data were analyzed in Graph Pad Prism. […] Raw data signals were normalized using 1% DMSO as 0% control and no enzyme as 100% inhibitor control.

Series [9] concerns the target human dipeptidylpeptidase 7 (hDPP7) (Homo sapiens (Human), UniProt Q9UHL4). Nature of the series: hDPP7 inhibition assay. It is filed as biochemical. Conditions: highest compound concentration 10 μM; n = 1. The procedure: Compounds were tested in a biochemical inhibition assay using human dipeptidylpeptidase 7 (hDPP7) enzyme (BPS Bioscience, #80070) and the substrate Ala-Pro-amino-methylcoumarin (BPS Bioscience, #80305) at 10 μM FAC. The enzymatic reactions were conducted in duplicate at rt for 20 min in 50 μL assay buffer (10 mM Tris-HCl, pH 7.4, 10 mM MgCl2, 1 mM MnCl2). Compound solutions (in DMSO) at 10 CR, 3-fold dilution series were prepared in assay buffer ten-fold higher than the final concentration, and 5 μL of the dilution was added to a 50 μL reaction so that the highest compound concentration was 10 μM FAC and the concentration of DMSO was 1% in all wells. The plates were read on a PHERAstarPLUS (BMG) using kinetic mode with excitation 340 nm and emission 460 nm. Data were analyzed in Graph Pad Prism. Raw data signals were normalized using 1% DMSO as 0% control and no enzyme as 100% inhibitor control.

Series [10] addresses human dipeptidylpeptidase 8 (hDPP8) (Homo sapiens (Human), UniProt Q6V1X1). The series can be described thus: hDPP8 inhibition assay. Conditions: single concentration 10 μM; n = 1. In kind it is biochemical. Here is the method:
Compounds were tested in a biochemical inhibition assay using human dipeptidylpeptidase 8 (hDPP8) enzyme (BPS Bioscience, #80800) and the substrate Gly-Pro-amino-methylcoumarin (Enzo #BML-P189-0005) at 10 μM FAC. The enzymatic reactions were conducted in duplicate at rt for 20 min in 50 μL assay buffer (50 mM Tris, pH 7.5, 0.1% BSA). Compound solutions (in DMSO), were prepared in assay buffer ten-fold higher than the final concentration, and 5 μL of the dilution was added to a 50 μL reaction so that the compound concentration was 10 μM FAC and the concentration of DMSO was 1% in all wells. The plates were read on a PHERAstarPLUS (BMG) using kinetic mode with excitation 340 nm and emission 460 nm. Data were analyzed in Graph Pad Prism. Raw data signals were normalized using 1% DMSO as 0% control and no enzyme as 100% inhibitor control.

The subject of series [11] is Rat Hepatocytes (rHep). Nature of the series: Metabolic stability in rat hepatocytes (rHep). In kind it is in vitro ADME. The procedure:
Metabolic stability in rat hepatocytes was measured as described in J Comput Aided Mol Des 2015, 29, 795.

Series [12] has as its system Human Hepatocytes (hHep). Nature of the series: Metabolic stability in human hepatocytes (hHep). It is filed as in vitro ADME. The procedure:
Metabolic stability in human hepatocytes was measured as described in Xenobiotica 2010, 40, 637.

Series [13] can be described thus: Kinetic solubility. In kind it is physicochemical. Conditions: kinetic from dmso stock. Here is the method:
Kinetic solubility was measured as described in Comput Aided Mol Des 2015, 29, 795.

A short description of series [14]: Caco-2 bidirectional (ABBA) permeability. Conditions: human. In kind it is in vitro ADME. Here is the method:
(§2) Caco-2 cell permeability was measured as described in Mol/Pharm 2017, 14, 1601.
(Caco-2 monolayers are a common model of the intestinal barrier.)

Series [15] is described as follows: Caco-2 AB intrinsic permeability. It is filed as in vitro ADME. Conditions: human, A to B, read-out: Caco2 AB Intrinsic Papp. The procedure: as §2

Chain of human Fibroblast activation protein alpha (hFAP) (Q12884 38-760): as above
Chain of FAP Human Plasma (Q12884 24-760 limits assumed): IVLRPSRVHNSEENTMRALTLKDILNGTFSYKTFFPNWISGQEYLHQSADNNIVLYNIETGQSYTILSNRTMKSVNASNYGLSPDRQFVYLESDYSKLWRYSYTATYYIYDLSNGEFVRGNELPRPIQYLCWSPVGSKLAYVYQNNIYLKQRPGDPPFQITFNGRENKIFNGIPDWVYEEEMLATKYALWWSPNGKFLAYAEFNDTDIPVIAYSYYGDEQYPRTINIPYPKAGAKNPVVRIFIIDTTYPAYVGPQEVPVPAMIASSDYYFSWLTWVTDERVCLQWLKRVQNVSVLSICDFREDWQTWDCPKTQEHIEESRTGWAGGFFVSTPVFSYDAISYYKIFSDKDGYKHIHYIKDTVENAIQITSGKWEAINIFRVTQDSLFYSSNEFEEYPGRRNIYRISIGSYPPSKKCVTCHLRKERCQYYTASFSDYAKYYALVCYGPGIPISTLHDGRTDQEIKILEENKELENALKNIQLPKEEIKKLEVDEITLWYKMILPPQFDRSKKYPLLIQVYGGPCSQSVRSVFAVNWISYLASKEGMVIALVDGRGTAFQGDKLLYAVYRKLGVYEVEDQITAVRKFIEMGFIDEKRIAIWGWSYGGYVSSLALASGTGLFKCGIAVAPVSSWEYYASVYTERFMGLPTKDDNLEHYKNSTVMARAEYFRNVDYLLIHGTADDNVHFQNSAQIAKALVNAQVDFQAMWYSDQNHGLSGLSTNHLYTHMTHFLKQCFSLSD
Chain of Prolyl Oligopeptidase (hPREP) (P48147 whole entry): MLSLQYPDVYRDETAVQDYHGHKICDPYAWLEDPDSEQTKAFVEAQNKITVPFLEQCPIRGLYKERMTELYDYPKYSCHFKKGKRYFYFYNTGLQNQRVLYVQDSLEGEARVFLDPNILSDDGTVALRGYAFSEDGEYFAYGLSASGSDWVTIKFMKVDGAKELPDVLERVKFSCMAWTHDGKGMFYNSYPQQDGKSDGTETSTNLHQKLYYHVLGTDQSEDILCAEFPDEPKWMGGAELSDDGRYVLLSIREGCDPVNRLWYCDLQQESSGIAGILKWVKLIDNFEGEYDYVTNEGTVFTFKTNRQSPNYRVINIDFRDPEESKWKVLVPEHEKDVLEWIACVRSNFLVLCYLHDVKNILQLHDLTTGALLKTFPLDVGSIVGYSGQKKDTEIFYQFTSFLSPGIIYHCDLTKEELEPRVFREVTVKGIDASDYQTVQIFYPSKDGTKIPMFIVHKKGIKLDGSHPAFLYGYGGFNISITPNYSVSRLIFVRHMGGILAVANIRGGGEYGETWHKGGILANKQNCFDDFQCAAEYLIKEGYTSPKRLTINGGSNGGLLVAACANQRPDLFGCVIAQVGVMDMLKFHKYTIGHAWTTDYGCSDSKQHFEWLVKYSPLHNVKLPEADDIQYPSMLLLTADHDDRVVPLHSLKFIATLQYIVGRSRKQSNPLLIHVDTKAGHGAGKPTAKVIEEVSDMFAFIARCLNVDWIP
Chain of FAP Mouse Plasma (P97321 24-761 limits assumed): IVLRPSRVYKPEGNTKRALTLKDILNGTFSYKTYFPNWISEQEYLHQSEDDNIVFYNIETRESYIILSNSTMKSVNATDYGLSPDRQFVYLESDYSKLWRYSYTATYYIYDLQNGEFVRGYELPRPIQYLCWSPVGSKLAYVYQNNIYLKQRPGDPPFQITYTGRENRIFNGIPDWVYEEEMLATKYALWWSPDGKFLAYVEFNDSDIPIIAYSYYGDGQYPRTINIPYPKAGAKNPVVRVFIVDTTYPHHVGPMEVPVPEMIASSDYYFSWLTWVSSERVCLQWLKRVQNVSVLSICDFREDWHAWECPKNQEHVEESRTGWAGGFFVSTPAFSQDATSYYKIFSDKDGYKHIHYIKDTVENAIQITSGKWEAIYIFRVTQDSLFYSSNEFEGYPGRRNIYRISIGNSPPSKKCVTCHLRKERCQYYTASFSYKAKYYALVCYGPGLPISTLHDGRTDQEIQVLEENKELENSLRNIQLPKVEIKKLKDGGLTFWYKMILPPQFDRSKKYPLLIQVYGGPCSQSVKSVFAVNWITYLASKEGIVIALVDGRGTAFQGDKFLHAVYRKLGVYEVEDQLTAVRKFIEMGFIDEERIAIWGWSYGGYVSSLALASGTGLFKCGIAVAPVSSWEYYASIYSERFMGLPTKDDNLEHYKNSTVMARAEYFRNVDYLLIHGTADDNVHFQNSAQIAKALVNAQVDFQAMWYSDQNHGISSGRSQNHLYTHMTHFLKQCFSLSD
Chain of human dipeptidylpeptidase 8 (hDPP8) (Q6V1X1 whole entry): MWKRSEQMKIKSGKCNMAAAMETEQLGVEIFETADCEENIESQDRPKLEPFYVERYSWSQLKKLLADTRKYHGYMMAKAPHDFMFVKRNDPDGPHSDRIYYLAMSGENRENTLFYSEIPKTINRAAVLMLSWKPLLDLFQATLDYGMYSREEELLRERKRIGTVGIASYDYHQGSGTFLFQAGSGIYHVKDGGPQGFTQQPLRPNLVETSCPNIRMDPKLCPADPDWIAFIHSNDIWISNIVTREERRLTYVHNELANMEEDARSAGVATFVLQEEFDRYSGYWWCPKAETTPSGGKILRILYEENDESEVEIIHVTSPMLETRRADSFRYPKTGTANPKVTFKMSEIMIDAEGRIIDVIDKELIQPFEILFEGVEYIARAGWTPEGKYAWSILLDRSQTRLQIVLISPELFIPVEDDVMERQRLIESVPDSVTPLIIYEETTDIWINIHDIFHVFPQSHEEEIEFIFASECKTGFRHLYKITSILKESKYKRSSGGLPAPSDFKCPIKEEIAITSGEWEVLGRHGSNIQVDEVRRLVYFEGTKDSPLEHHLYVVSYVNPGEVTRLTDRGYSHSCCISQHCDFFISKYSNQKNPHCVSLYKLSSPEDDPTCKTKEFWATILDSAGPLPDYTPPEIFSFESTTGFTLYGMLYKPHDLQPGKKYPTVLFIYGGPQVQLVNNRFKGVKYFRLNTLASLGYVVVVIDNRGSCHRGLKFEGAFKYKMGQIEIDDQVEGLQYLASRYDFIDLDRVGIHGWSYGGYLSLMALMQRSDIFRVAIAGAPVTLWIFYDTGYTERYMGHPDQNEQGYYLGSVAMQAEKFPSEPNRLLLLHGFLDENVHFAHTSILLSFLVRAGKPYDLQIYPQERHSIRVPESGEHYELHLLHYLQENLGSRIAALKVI
Chain of human dipeptidylpeptidase 9 (hDPP9) (Q86TI2 whole entry): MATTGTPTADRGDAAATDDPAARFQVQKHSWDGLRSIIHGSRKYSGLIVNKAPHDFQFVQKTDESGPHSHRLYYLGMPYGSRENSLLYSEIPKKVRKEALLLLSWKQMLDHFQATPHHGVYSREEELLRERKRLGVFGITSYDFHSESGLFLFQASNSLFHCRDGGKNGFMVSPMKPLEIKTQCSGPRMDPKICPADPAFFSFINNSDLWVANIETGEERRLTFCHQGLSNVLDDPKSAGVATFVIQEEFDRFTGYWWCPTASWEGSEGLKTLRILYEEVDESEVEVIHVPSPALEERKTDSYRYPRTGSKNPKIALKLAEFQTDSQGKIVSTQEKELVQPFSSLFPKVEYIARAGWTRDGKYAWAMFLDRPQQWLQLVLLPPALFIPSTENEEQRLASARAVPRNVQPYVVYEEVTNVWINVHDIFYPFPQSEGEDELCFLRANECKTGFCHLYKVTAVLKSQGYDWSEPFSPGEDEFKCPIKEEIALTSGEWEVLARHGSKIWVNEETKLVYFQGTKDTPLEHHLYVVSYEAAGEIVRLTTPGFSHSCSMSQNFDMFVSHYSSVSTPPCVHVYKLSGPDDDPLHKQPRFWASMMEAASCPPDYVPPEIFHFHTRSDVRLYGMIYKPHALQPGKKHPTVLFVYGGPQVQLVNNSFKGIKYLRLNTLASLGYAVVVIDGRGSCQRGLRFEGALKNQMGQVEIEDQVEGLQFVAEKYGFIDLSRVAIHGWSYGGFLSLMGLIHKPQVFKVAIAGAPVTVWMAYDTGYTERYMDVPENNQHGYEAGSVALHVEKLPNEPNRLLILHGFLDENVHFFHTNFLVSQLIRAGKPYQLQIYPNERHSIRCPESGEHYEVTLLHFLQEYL
Chain of FAP enzyme activity in mouse plasma (P97321 24-761 limits assumed): as the sequence (P97321 24-761 limits assumed) above

Turning to `N#C[C@@H]1C[C@@H]2C[C@@H]2N1C(=O)CNC(=O)c1ccnc2cc(Cl)ccc12` [Example 2, 7-Chloro-N-(2-((1S,3S,5S)-3-cyano-2-azabicyclo[3.1.0]hexan-2-yl)-2-oxoethyl)quinoline-4-carboxamide], the IC50 is over 50000 nM in series [1]; 7.1 nM in series [2]; 0.18 nM in series [3]; 13 nM in series [4]; 0.65 nM in series [5]; 21 nM in series [6].

For the molecule `N#C[C@@H]1C[C@@H]2C[C@@H]2N1C(=O)CNC(=O)c1ccnc2cc(C(F)(F)F)ccc12` [Example 23, N-(2-((1S,3S,5S)-3-Cyano-2-azabicyclo[3.1.0]hexan-2-yl)-2-oxoethyl)-7-(trifluoromethyl)quinoline-4-carboxamide], the IC50 in [1] is 12000 nM; in [2], 1.9 nM; in series [3] it was 0.33 nM; in series [4] it was 3.6 nM; in series [8], over 10 nM; in series [9], over 10 nM. The midpoint of inhibition in series [5], the IC50, lay at 0.81 nM. Further, the microsomal CLint in [7] came out at 9.9 µL/min/mg. For the same molecule, the “hDPP8 Activity at Compound Concentration 10 μM” value in [10] is given as “Not Active”. Also, the “rHeps CLint” value in series [11] is on record as 7.7 μL/min/1E6. Moreover, in series [12], the “hHep CLint” value is 1.6 μL/min/1E6. In addition, in [13], the solubility is over 1000 µM.

Take `N#C[C@@H]1C[C@@H]2C[C@@H]2N1C(=O)CNC(=O)c1ccnc2cc(C3CC3)ccc12` [Example 37, N-(2-((1S,3S,5S)-3-Cyano-2-azabicyclo[3.1.0]hexan-2-yl)-2-oxoethyl)-7-cyclopropylquinoline-4-carboxamide]: the IC50 in series [1] was over 50000 nM; in series [2] it was 2.4 nM; in series [3], 0.3 nM; in series [4], 5.5 nM; in [5], under 1.7 nM. In addition, in [14] (A to B, read-out: Caco2 Bidirectional (ABBA) A to B Papp), the apparent permeability from apical to basolateral (Papp A→B) was 18 ×10⁻⁶ cm/s. Further, the Papp B→A in [14] (B to A, read-out: Caco2 Bidirectional (ABBA) B to A Papp) was 33 ×10⁻⁶ cm/s. Moreover, the efflux ratio in series [14] (read-out: Caco2 Bidirectional (ABBA) Efflux Ratio) is 1.8. The molecule also returned a microsomal CLint in series [7] of 8.4 µL/min/mg. Besides, the Papp in [15] is 29 ×10⁻⁶ cm/s. The “rHeps CLint” value in series [11] came to 49 μL/min/1E6. In series [12], the “hHep CLint” value turned out to be 2.3 μL/min/1E6. In series [13], the solubility turned out to be 810 µM (≈ 292 µg/mL).
